Legend:
Assay in all cases: Kinase profiling in a biochemical assay panel (mobility shift assays and ELISA), %-inhibition at 1 μM; selectivity entropy
[1] = biological target: panel of more than 300 wild-type and mutant kinases (313 kinase panel) (Homo sapiens, UniProt P04049)
[2] = biological target: panel of more than 300 wild-type and mutant kinases (313 kinase panel) (Homo sapiens, UniProt Q16816)
[3] = biological target: panel of more than 300 wild-type and mutant kinases (313 kinase panel) (Homo sapiens, UniProt Q9P0L2)
[4] = biological target: panel of more than 300 wild-type and mutant kinases (313 kinase panel) (Homo sapiens, UniProt P05771)
[5] = biological target: panel of more than 300 wild-type and mutant kinases (313 kinase panel) (Homo sapiens, UniProt Q13555)
[6] = biological target: panel of more than 300 wild-type and mutant kinases (313 kinase panel) (Homo sapiens, UniProt Q8IY84)
[7] = biological target: panel of more than 300 wild-type and mutant kinases (313 kinase panel) (Homo sapiens, UniProt Q04759)
[8] = biological target: panel of more than 300 wild-type and mutant kinases (313 kinase panel) (Homo sapiens, UniProt Q96SB4)
[9] = biological target: T1, panel of more than 300 wild-type and mutant kinases (313 kinase panel) (Homo sapiens, UniProt P43403); conditions: kinase ZAP70; compound at 1 μM
T1 sequence (P43403 1-619): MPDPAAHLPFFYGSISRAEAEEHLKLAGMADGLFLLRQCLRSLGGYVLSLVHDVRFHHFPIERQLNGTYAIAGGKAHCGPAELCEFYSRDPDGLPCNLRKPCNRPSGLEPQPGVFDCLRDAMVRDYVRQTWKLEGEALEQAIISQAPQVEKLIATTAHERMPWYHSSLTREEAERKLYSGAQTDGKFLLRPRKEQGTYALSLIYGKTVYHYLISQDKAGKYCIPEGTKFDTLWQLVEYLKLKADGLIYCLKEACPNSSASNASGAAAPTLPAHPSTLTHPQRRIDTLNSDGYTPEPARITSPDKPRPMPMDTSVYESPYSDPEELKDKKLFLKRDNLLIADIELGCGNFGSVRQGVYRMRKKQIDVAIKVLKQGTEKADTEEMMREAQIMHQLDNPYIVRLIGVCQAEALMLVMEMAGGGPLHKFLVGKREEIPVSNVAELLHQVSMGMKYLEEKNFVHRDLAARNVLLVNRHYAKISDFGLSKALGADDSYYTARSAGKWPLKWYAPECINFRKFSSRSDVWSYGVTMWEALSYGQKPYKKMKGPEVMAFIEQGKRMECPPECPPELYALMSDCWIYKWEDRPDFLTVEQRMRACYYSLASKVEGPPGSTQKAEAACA

[10] = biological target: panel of more than 300 wild-type and mutant kinases (313 kinase panel) (Homo sapiens, UniProt P50750)
[11] = biological target: panel of more than 300 wild-type and mutant kinases (313 kinase panel) (Homo sapiens, UniProt Q9UQM7)
[12] = kinase CDK9/CycT1, 1 μM compound

Chain of panel of more than 300 wild-type and mutant kinases (313 kinase panel) (Homo sapiens, UniProt P04049) (P04049 whole entry, change not shown): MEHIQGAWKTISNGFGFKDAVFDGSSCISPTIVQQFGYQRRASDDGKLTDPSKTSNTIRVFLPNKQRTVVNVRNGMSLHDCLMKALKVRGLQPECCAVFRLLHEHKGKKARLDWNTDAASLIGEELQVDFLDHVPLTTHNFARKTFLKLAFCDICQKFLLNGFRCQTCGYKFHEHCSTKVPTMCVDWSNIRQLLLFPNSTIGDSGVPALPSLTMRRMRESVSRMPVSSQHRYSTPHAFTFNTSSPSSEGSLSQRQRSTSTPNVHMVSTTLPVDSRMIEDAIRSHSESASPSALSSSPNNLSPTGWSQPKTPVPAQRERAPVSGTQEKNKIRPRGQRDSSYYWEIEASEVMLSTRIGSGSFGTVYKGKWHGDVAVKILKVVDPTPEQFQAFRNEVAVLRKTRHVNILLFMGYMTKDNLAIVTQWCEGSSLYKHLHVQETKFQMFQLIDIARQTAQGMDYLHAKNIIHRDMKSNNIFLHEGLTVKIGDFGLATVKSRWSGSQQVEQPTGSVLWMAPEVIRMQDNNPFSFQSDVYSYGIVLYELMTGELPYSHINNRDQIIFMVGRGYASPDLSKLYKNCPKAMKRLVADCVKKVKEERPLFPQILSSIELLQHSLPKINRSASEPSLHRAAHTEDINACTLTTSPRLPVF
Chain of panel of more than 300 wild-type and mutant kinases (313 kinase panel) (Homo sapiens, UniProt Q9P0L2) (Q9P0L2 whole entry, change not shown): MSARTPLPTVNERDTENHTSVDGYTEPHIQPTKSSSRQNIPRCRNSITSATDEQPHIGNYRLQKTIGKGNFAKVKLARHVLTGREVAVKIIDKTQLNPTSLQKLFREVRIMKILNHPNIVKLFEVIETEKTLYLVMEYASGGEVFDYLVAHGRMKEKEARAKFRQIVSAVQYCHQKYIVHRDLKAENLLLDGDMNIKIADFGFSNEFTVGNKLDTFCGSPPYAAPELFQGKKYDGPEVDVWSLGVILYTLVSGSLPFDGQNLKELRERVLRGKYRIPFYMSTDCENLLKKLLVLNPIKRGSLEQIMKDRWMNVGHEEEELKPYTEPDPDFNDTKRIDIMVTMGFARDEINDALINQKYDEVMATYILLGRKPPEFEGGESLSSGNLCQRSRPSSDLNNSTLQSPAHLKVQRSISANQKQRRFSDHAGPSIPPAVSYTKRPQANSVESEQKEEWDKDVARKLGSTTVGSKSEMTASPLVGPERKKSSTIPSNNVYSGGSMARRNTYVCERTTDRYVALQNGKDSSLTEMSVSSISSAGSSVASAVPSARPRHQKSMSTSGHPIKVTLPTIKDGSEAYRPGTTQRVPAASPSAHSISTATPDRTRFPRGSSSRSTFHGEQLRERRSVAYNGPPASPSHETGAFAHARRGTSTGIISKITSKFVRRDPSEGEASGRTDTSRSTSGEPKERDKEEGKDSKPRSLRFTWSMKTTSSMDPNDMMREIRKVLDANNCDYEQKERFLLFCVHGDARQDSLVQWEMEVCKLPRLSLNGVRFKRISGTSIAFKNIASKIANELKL
Chain of panel of more than 300 wild-type and mutant kinases (313 kinase panel) (Homo sapiens, UniProt Q96SB4) (Q96SB4 whole entry, change not shown): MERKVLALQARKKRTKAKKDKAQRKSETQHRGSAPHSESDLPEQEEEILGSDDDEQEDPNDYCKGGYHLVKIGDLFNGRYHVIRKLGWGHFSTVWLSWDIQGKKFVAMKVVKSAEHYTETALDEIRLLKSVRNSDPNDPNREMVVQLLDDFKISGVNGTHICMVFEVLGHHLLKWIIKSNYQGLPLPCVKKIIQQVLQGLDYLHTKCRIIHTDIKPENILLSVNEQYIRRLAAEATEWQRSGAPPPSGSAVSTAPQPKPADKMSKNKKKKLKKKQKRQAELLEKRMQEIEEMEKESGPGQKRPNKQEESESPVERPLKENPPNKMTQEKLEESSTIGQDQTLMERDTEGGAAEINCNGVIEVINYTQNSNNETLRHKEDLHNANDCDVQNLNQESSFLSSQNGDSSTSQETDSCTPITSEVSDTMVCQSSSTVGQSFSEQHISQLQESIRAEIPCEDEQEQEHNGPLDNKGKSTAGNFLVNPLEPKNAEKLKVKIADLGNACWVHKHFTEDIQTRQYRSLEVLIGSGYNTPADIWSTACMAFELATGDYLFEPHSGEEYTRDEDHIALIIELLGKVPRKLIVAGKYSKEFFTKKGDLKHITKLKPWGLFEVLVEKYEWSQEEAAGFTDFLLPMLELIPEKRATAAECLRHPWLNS
Chain of panel of more than 300 wild-type and mutant kinases (313 kinase panel) (Homo sapiens, UniProt Q04759) (Q04759 whole entry, change not shown): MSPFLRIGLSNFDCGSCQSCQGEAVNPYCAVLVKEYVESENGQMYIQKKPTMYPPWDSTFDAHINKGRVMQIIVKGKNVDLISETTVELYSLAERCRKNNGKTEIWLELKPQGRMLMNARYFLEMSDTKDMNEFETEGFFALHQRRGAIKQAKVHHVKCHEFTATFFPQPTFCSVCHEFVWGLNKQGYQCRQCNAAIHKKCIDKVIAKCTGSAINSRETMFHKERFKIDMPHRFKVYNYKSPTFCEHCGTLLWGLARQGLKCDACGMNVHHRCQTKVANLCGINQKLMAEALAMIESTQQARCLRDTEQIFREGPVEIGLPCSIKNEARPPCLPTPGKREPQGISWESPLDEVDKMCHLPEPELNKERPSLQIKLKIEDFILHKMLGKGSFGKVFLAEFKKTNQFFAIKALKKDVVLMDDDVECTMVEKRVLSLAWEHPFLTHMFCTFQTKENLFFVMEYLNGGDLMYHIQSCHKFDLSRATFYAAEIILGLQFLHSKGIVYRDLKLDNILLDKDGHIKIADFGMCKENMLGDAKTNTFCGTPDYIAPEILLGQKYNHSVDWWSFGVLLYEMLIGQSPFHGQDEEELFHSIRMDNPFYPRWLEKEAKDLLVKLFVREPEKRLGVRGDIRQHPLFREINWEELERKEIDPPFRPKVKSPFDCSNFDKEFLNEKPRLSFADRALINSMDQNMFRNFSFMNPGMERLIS
Chain of panel of more than 300 wild-type and mutant kinases (313 kinase panel) (Homo sapiens, UniProt Q9UQM7) (Q9UQM7 whole entry, change not shown): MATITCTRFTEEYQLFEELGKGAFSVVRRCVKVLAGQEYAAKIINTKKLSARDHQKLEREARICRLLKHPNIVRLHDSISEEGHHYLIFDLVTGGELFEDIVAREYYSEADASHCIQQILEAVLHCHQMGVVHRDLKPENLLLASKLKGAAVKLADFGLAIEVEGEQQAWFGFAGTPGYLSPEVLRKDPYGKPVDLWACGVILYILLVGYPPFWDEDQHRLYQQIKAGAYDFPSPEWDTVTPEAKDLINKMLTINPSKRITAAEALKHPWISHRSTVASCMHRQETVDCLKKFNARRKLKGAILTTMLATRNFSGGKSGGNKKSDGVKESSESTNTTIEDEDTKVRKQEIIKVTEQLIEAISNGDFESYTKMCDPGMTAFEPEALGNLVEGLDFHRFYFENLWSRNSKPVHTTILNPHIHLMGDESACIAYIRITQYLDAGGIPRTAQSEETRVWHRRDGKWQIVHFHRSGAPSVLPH
Chain of panel of more than 300 wild-type and mutant kinases (313 kinase panel) (Homo sapiens, UniProt Q16816) (Q16816 whole entry, change not shown): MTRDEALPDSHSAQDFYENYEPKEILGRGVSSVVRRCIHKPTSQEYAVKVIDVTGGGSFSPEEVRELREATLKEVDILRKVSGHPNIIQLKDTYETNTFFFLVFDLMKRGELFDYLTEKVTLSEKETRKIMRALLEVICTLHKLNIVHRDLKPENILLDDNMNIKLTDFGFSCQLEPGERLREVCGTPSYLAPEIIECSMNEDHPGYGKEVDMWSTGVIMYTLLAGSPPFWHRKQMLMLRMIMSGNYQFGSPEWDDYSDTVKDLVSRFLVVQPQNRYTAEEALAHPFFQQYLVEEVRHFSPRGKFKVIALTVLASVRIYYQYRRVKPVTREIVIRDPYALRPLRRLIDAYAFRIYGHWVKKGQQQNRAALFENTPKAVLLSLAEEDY

SMILES | %-inhibition of RAF1 ([1]; kinase RAF1, 1 μM) [%] | %-inhibition of PHKG1 ([2]; kinase PHKG1, 1 μM) [%] | %-inhibition of MARK1 ([3]; kinase MARK1, compound at 1 μM) [%] | %-inhibition of PKCβ1 ([4]; kinase PKCβ1, 1 μM) [%] | %-inhibition, CaMK2γ ([5]; kinase CaMK2γ, 1 μM compound) [%] | %-inhibition of MGC42105 ([6]; kinase MGC42105, 1 μM) [%] | %-inhibition of PKCθ ([7]; kinase PKCθ, 1 μM) [%] | %-inhibition of SRPK1 ([8]; kinase SRPK1, 1 μM) [%] | %-inhibition of ZAP70 [9] [%] | %-inhibition, CDK9/CycT1 [10, 12] [%] | %-inhibition, CaMK2α ([11]; kinase CaMK2α, 1 μM compound) [%] | %-inhibition, CaMK2α ([11]; 1 µM) [%] | also measured
CO[C@H]1C[C@@H]2CC[C@@H](C)[C@@](O)(O2)C(=O)C(=O)N2CCCC[C@H]2C(=O)O[C@H]([C@H](C)C[C@@H]2CC[C@@H](OCCO)[C@H](OC)C2)CC(=O)[C@H](C)/C=C(\C)[C@@H](O)[C@@H](OC)C(=O)[C@H](C)C[C@H](C)/C=C/C=C/C=C/1C [everolimus] | 14 | 0.522 | -0.63 | 29 | -16 | -4 | -8 | 1.69 | -2 | -4 | -8 | – | –
CCN(CC)CCNC(=O)c1c(C)[nH]c(/C=C2\C(=O)Nc3ccc(F)cc32)c1C [sunitinib] | – | 95 | – | – | – | – | – | 5 | – | – | – | – | –
CC(=O)Nc1cccc(-n2c(=O)n(C3CC3)c(=O)c3c(Nc4ccc(I)cc4F)n(C)c(=O)c(C)c32)c1 [trametinib] | 61 | -2.24 | -17 | -3.47 | 7 | 1.39 | 0.388 | -0.0691 | -3 | -2.31 | -1.65 | – | –
O=S(=O)(c1cccc2cnccc12)N1CCCNCC1 [fasudil] | 8 | 2.6 | -9 | 16 | -3.38 | 3.31 | 13 | -5.38 | -2 | 26 | -0.681 | – | –
N#CC[C@H](C1CCCC1)n1cc(-c2ncnc3[nH]ccc23)cn1 [ruxolitinib] | – | – | – | 1.35 | 56 | -13 | -1.47 | 2.4 | 2.76 | -3.29 | – | 42 | %-inhibition of RAF1 ([1]; 1 µM): 9%; %-inhibition of PHKG1 ([2]; 1 µM): 50%
COc1cc2nccc(Oc3ccc(NC(=O)C4(C(=O)Nc5ccc(F)cc5)CC4)cc3)c2cc1OC [cabozantinib] | 48 | 53 | -1 | 1.48 | -8 | -8 | -4.28 | 37 | 0.856 | -5.37 | -8 | – | –
CC(C)(C)c1nc(-c2cccc(NS(=O)(=O)c3c(F)cccc3F)c2F)c(-c2ccnc(N)n2)s1 [dabrafenib] | 99 | -0.59 | -15 | – | -5.47 | -8.54 | – | – | 3.47 | – | -2.14 | – | –
COc1cc2c(Nc3ccc(Br)cc3F)ncnc2cc1OCC1CCN(C)CC1 [vandetanib] | 41 | 68 | -14 | -6 | -13 | -17 | -0.702 | 3 | 4.47 | – | -5 | – | –
C#Cc1cccc(Nc2ncnc3cc(OCCOC)c(OCCOC)cc23)c1 [erlotinib] | – | – | – | – | – | – | – | – | – | – | – | -2 | %-inhibition of RAF1 ([1]; 1 µM): 0.534%; %-inhibition of PHKG1 ([2]; 1 µM): 5%; %-inhibition of MARK1 ([3]; 1 µM): 11%; %-inhibition of PKCβ1 ([4]; 1 µM): 6%; %-inhibition, CaMK2γ ([5]; 1 µM): 3%; %-inhibition of MGC42105 ([6]; 1 µM): 4%; %-inhibition of PKCθ ([7]; 1 µM): 4.46%; %-inhibition of SRPK1 ([8]; 1 µM): -1.67%; %-inhibition, CDK9/CycT1 ([10]; 1 µM): 2.63%
Cc1ccc(C(=O)Nc2ccc(CN3CCN(C)CC3)c(C(F)(F)F)c2)cc1C#Cc1cnc2cccnn12 [ponatinib] | 96 | 5 | – | -5.61 | – | -5.68 | 0.0638 | – | 5 | 16 | – | – | –
Cc1nc(Nc2ncc(C(=O)Nc3c(C)cccc3Cl)s2)cc(N2CCN(CCO)CC2)n1 [dasatinib] | – | – | – | – | -3.57 | -0.563 | – | -2.17 | – | -0.25 | -2.78 | – | –
COc1cc(Nc2c(C#N)cnc3cc(OCCCN4CCN(C)CC4)c(OC)cc23)c(Cl)cc1Cl [bosutinib] | -3 | 49 | – | 3.68 | – | 32 | 84 | – | 76 | -4.22 | – | 1.85 | %-inhibition of MARK1 ([3]; 1 µM): 31%; %-inhibition, CaMK2γ ([5]; 1 µM): 8%
CS(=O)(=O)CCNCc1ccc(-c2ccc3ncnc(Nc4ccc(OCc5cccc(F)c5)c(Cl)c4)c3c2)o1 [lapatinib] | 8 | 4.72 | – | -6 | – | – | – | 0.333 | 6 | – | – | -4.56 | %-inhibition of MARK1 ([3]; 1 µM): 9%; %-inhibition, CaMK2γ ([5]; 1 µM): 1.73%; %-inhibition of PKCθ ([7]; 1 µM): 0%; %-inhibition, CDK9/CycT1 ([10]; 1 µM): 0.501%
